Here are results for four molecules from paper PMC5675747 (The Journal of steroid biochemistry and molecular biology, 2017).

In data set [1] the target is T1, zfSult2st2 (Danio rerio, UniProt A0EXC5).
T1 sequence (A0EXC5 1-287): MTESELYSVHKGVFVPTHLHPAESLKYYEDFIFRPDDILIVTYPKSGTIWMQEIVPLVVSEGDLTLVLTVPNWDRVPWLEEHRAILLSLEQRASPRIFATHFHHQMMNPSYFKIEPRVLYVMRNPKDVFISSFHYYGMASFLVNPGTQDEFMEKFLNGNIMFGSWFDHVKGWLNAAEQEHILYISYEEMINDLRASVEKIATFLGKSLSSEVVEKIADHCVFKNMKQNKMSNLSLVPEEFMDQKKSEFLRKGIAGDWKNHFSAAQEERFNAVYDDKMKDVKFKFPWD
Briefly: […]PAPS sulfation assay, TLC and scintillation counting. Format: biochemical. The settings on record: 14 μM PAPS, 50 mM Mops pH 7.0, 1 mM DTT, 28 °C; substrate inhibition constant.

Data set [2] has as its target T2, zfSult2st3 (Danio rerio, UniProt A0ACM8QCA3).
T2 sequence (A0ACM8QCA3 1-288): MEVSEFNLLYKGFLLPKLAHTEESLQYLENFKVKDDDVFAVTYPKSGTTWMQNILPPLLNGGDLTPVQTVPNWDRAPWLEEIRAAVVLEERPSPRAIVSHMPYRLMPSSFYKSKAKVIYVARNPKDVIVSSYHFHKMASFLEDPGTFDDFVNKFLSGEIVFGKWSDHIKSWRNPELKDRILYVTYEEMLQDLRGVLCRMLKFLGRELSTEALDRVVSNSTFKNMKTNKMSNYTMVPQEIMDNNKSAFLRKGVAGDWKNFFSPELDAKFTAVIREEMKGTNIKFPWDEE
Described as above. Format: biochemical. The settings on record: 14 μM PAPS, 50 mM Mops pH 7.0, 1 mM DTT, 28 °C; substrate inhibition constant.

The target of data set [3] is T3, hSULT2A1 (Homo sapiens, UniProt Q06520).
T3 sequence (Q06520 1-285): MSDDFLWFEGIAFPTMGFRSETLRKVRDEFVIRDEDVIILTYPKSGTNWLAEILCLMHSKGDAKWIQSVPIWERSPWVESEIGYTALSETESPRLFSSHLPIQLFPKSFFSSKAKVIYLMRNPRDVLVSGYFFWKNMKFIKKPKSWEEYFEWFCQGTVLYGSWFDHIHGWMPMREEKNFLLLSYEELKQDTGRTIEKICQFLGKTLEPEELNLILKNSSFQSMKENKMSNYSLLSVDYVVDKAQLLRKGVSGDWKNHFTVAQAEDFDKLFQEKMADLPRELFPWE
Described as above. It is filed as biochemical. The settings on record: 14 μM PAPS, 50 mM Mops pH 7.0, 1 mM DTT, 37 °C; substrate inhibition constant.

Data set [4] deals with T4, zfSult3st4 (Danio rerio, UniProt A0A8M1P203).
T4 sequence (A0A8M1P203 1-299): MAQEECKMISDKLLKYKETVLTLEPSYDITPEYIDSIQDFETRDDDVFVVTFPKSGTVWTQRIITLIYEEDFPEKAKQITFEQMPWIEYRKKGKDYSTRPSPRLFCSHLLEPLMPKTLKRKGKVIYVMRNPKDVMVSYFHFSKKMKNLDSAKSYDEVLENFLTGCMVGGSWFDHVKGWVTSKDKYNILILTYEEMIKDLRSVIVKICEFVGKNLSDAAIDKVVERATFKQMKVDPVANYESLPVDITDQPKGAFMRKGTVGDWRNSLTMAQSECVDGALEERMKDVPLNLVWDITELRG
Described as above. Format: biochemical. The settings on record: 14 μM PAPS, 50 mM Mops pH 7.0, 1 mM DTT, 28 °C; substrate inhibition constant.

Substrate in data set [5]: C[C@H](CCCC(CO)CO)[C@H]1CC[C@H]2[C@@H]3[C@H](O)C[C@@H]4C[C@H](O)CC[C@]4(C)[C@H]3C[C@H](O)[C@]12C
Briefly: purified protein. Format: biochemical, Homo sapiens. The settings on record: 14 μM PAPS, 50 mM Mops pH 7.0, 1 mM DTT, 37 °C.

Substrate in data set [6]: C[C@H](CCCC(CO)CO)[C@H]1CC[C@H]2[C@@H]3[C@H](O)C[C@@H]4C[C@H](O)CC[C@]4(C)[C@H]3C[C@H](O)[C@]12C
As to the kind of experiment: purified protein. The settings on record: 14 μM PAPS, 50 mM Mops pH 7.0, 1 mM DTT, 28 °C. It is filed as biochemical, Danio rerio.

Consider `C[C@H](CCCC(CO)CO)[C@H]1CC[C@H]2[C@@H]3[C@H](O)C[C@@H]4C[C@H](O)CC[C@]4(C)[C@H]3C[C@H](O)[C@]12C` [5β-cyprinol], for which the “Ki” value was found to be 58.15 ± 5.74 µM in data set [1] and 39.78 ± 6.70 µM in data set [2].
Regarding `C[C@H](CCCC(CO)CO)[C@H]1CC[C@H]2[C@@H]3[C@H](O)C[C@H]4C[C@H](O)CC[C@]4(C)[C@H]3C[C@H](O)[C@]12C` [5α-cyprinol, 3α,7α,12α,26,27-pentahydroxy-5α-cholestane], the “Ki” value in data set [3] was 210.8 ± 19.9 µM; in data set [1], 27.43 ± 11.16 µM; in data set [4] it was 164.9 ± 22.2 µM; in data set [2], 373.9 ± 38.0 µM.

B1: hSULT2A1 (Homo sapiens) (protein)
chain: MSDDFLWFEGIAFPTMGFRSETLRKVRDEFVIRDEDVIILTYPKSGTNWLAEILCLMHSKGDAKWIQSVPIWERSPWVESEIGYTALSETESPRLFSSHLPIQLFPKSFFSSKAKVIYLMRNPRDVLVSGYFFWKNMKFIKKPKSWEEYFEWFCQGTVLYGSWFDHIHGWMPMREEKNFLLLSYEELKQDTGRTIEKICQFLGKTLEPEELNLILKNSSFQSMKENKMSNYSLLSVDYVVDKAQLLRKGVSGDWKNHFTVAQAEDFDKLFQEKMADLPRELFPWE
In the case of B1, in data set [5], the Km worked out at 221.3 ± 23.1 µM and the maximal velocity (Vmax) came out at 0.00224 µmol/min/mg.

B2: zfSult3st4 (Danio rerio) (protein)
chain: MAQEECKMISDKLLKYKETVLTLEPSYDITPEYIDSIQDFETRDDDVFVVTFPKSGTVWTQRIITLIYEEDFPEKAKQITFEQMPWIEYRKKGKDYSTRPSPRLFCSHLLEPLMPKTLKRKGKVIYVMRNPKDVMVSYFHFSKKMKNLDSAKSYDEVLENFLTGCMVGGSWFDHVKGWVTSKDKYNILILTYEEMIKDLRSVIVKICEFVGKNLSDAAIDKVVERATFKQMKVDPVANYESLPVDITDQPKGAFMRKGTVGDWRNSLTMAQSECVDGALEERMKDVPLNLVWDITELRG
With B2, in data set [6], the Michaelis constant (Km) came to 98.9 ± 2.89 µM and the Vmax amounted to 0.00397 µmol/min/mg.

By Km is commonly meant the concentration of substrate that gives half-maximal velocity. For orientation: Vmax means the top rate of the reaction or transport when substrate is in excess.
